One test concerns the target T1, human CYP26B1 enzyme (Homo sapiens, UniProt Q9NR63).
T1 construct: expressed in transfected cells; host or cells: HeLa cells
T1 sequence (Q9NR63 1-512): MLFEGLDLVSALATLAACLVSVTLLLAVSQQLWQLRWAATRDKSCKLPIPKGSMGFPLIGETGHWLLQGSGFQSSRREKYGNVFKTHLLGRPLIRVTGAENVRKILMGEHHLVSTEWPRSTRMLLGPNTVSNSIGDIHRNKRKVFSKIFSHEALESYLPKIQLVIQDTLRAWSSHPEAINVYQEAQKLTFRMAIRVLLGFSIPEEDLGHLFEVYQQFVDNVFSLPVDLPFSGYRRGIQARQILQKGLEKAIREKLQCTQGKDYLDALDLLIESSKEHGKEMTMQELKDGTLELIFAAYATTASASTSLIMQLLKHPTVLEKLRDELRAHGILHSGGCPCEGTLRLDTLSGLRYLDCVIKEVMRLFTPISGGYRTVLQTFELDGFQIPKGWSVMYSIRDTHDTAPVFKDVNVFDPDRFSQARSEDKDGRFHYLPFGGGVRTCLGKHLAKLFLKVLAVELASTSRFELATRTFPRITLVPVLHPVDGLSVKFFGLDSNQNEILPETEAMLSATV
The test is described as follows: Cell test, HeLa cells overexpressing human CYP26B1, metabolism of radiolabelled retinoic acid (3H-RA). The format is cell-based. The settings on record: 3 h incubation with 3H-RA, mean of two experiments. The protocol: (§1) A cell test using HeLa cells overexpressing either the human CYP26A1 enzyme or the human CYP26B1 enzyme, similar to that described in White et al.(Proc Natl Acad Sci U S A. 2000 Jun 6; 97(12): 6403-8), was used. […] After the incubation time of 3 h, the reaction was stopped and an extraction phase was carried out in order to separate the aqueous and organic layers. The amount of radioactivity present in the aqueous layer was then measured as an indicator of the amount of RA which was metabolized.
A first experiment using 3 different concentrations of compounds according to the invention (0.1, 1 and 10 μM) was carried out in order to evaluate the inhibitory activity of the compounds. A second test was then carried out with a wide range of concentrations (0.01, 0.1, 0.5, 1, 5 and 10 μM). The results obtained during these two tests are similar.
The following table lists the mean of the AC50 values obtained over these two experiments.

The next test deals with T2, human CYP26A1 enzyme (Homo sapiens, UniProt O43174).
T2 construct: expressed in transfected cells; host or cells: HeLa cells
T2 sequence (O43174 1-497): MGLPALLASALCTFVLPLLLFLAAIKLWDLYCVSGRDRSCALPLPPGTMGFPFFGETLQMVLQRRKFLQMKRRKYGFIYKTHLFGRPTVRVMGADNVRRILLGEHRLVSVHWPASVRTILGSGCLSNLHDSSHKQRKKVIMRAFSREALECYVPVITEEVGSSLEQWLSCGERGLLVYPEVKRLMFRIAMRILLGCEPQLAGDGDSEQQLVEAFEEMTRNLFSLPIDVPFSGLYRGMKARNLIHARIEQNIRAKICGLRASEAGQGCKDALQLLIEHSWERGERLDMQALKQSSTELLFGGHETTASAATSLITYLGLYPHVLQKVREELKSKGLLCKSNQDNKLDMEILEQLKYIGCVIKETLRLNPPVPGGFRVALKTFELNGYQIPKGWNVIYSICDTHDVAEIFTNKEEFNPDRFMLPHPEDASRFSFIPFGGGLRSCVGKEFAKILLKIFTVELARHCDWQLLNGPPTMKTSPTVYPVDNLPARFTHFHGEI
The test can be described thus: Cell test, HeLa cells overexpressing human CYP26A1, metabolism of radiolabelled retinoic acid (3H-RA). In kind it is cell-based. The settings on record: for AC50: HeLa cells overexpressing human CYP26A1, 3 h incubation with 3H-RA, mean of two experiments; for CYP26B1/CYP26A1 (selectivity ratio of mean AC50): ratio of AC50 CYP26B1 to AC50 CYP26A1; for Isoform activity in words: CYP26A1 versus CYP26B1, HeLa cell test. The protocol:
as §1
A first experiment using 3 different concentrations of compounds according to the invention (0.1, 1 and 10 μM) was carried out in order to evaluate the inhibitory activity of the compounds. A second test was then carried out with a wide range of concentrations (0.01, 0.1, 0.5, 1, 5 and 10 μM).

The test system of the next test is stratum corneum. The test can be described thus: Measurement of the thickness of the stratum corneum in Fuzzy rats. The format is in vivo, rat. The settings on record: for Thickness of the stratum corneum (μm) / Thickness of the stratum corneum relative to the carrier: male Fuzzy rats, topical, 24 days after the treatment. As to the method:
Male Fuzzy rats are separated into four batches each comprising five rats. A topical treatment is carried out on each batch by administering, respectively, a carrier acting as a control, a dose of 0.000001% of retinol, a dose of 0.1% of retinol and a dose of 0.3% of a compound according to the invention corresponding to Example 1.
24 days after the treatment, the rats are euthanized and a 10 μm section of skin is sampled in order to perform a biopsy. A 1M NaOH solution is added to each section in order to soften the stratum corneum. The photos under a microscope are taken in a time period of 2 minutes after the addition of the 1M NaOH solution.
The table below presents the results on the thickness of the stratum corneum for the various batches.

In another test the target is T3, CYP26B1 isoform (Homo sapiens, UniProt Q9NR63).
T3 sequence (Q9NR63 1-512): T1 sequence (Q9NR63 1-512)
The settings on record: background statement; cited from earlier work.

`CC1(C)CCC(C)(C)c2cc(S(=O)(=O)CCc3ccc(C(=O)O)cc3)ccc21` [Compound 1, 4-[2-(5,5,8,8-Tetramethyl-5,6,7,8-tetrahydronaphthalene-2-sulphonyl)ethyl]benzoic acid] registered an AC50 at human CYP26B1 enzyme of 50300 nM. Further, on human CYP26A1 enzyme, the AC50 amounted to 190 nM and the “CYP26B1/CYP26A1 (selectivity ratio of mean AC50)” value is 261.50. Also, in the test with stratum corneum (dose 0.3%), the “Thickness of the stratum corneum (μm)” value was determined as 24.07 μm and the “Thickness of the stratum corneum relative to the carrier” value was determined as 0.57. Further, the “Photographs of the keratinous layer (FIGS. 2 and 3), result in words” value in the test with stratum corneum (rats treated with 0.3% versus carrier) is recorded as “decrease in the thickness of the stratum corneum”.

In turn, `Clc1cccc(C(c2ccc3[nH]cnc3c2)n2ccnc2)c1` (centres unmarked) [Liarozole] had an AC50 at human CYP26B1 enzyme of 320 nM. Further, on human CYP26A1 enzyme, the “Isoform activity in words” value was “more active on CYP26B1 than on CYP26A1”.

In the case of `CCC(CC)C(c1ccc(Nc2nc3ccccc3s2)cc1)n1cncn1` (centres unmarked) [Rambazole], at CYP26B1 isoform, the “Activity on the CYP26B1 isoform” value was “about 62 nM”. Also, the activity on human CYP26B1 enzyme was half-maximal at 64 nM (AC50). For the same molecule, on human CYP26A1 enzyme, the “Isoform activity in words” value is given as “active on the inhibition of the activity of the two isoforms”, the AC50 came to 4 nM and the “CYP26B1/CYP26A1 (selectivity ratio of mean AC50)” value amounted to 16.82.

Regarding `CC1=C(/C=C/C(C)=C/C=C/C(C)=C/CO)C(C)(C)CCC1` [Retinol], the figures for the “Thickness of the stratum corneum (μm)” value in the test on stratum corneum (dose 0.000001%) and with stratum corneum (dose 0.1%) were 41.60 μm and 26.24 μm, respectively. Also, the figures for the “Thickness of the stratum corneum relative to the carrier” value in the test with stratum corneum (dose 0.000001%) and in the test on stratum corneum (dose 0.1%) were 0.98 and 0.62, respectively.
